From patent publication US20190247361A1, “OXYTOCIN ANTAGONIST DOSING REGIMENS FOR PROMOTING EMBRYO IMPLANTATION AND PREVENTING MISCARRIAGE” (ObsEva S.A., priority 2016, published 2019) come the findings set out here.

Type in all cases: in vitro ADME
Series [1] relates to cytochrome P450. Nature of the series: microsomal stability, pooled liver microsomes, cytochrome P450 alone. Particulars: 45 minute experiment. How it is done: (§1) At five time points over the course of a 45 minute experiment, the compounds were analyzed by liquid chromatography and tandem mass spectrometry (LC-MS/MS). Intrinsic clearance values (CLint) with standard error (SE CLint) and metabolic half-life (t1/2) were calculated and are indicated in Table 9, below.

The test system of series [2] is cytochrome P450 in combination with UGT. As to the kind of experiment: microsomal stability, pooled liver microsomes, cytochrome P450 in combination with UGT. The settings on record: 45 minute experiment. As to the method: as §1
For orientation: Microsomes from liver hold many membrane-bound enzymes, among them those of drug oxidation.

Series [3] has as its target CYP3A4 (Homo sapiens, UniProt P08684). As to the kind of experiment: metabolism by CYP3A4 isoform. The settings on record: for Compound Remaining (% of compound present at t = 0 min): 5 μM. How it is done:
(§2) At five time points over the course of a 45 minute experiment, the compounds were analyzed by LC-MS/MS. The percentage of each compound remaining at each time point, along with the metabolic half-lives of each compound in the presence of each cytochrome P450 isoform, are indicated in Tables 10-12, below.

Series [4] has as its target CYP2D6 (Homo sapiens, UniProt P10635). Nature of the series: metabolism by CYP2D6 isoform. The settings on record: for Compound Remaining (% of compound present at t = 0 min): 5 μM. How it is done: as §2
Series [5] addresses CYP2C19 (Homo sapiens, UniProt P33261). Nature of the series: metabolism by CYP2C19 isoform. The settings on record: for Compound Remaining (% of compound present at t = 0 min): 5 μM. How it is done: as §2

Chain of CYP2C19 (P33261 whole entry, canonical isoform): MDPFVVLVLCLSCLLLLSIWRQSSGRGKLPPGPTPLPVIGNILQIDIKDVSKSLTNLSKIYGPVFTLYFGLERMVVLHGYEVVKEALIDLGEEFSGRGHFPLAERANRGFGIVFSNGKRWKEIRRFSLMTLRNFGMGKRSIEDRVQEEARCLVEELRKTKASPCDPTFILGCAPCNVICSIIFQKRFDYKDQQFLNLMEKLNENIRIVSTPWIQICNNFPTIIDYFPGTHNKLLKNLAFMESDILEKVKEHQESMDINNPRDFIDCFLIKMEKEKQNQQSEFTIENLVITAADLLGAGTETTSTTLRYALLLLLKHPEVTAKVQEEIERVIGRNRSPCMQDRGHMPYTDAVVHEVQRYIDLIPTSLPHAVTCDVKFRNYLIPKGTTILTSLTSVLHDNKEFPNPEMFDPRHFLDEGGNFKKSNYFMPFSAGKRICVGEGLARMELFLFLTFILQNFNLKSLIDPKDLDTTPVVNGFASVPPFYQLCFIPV
Chain of CYP3A4 (P08684 whole entry, canonical isoform): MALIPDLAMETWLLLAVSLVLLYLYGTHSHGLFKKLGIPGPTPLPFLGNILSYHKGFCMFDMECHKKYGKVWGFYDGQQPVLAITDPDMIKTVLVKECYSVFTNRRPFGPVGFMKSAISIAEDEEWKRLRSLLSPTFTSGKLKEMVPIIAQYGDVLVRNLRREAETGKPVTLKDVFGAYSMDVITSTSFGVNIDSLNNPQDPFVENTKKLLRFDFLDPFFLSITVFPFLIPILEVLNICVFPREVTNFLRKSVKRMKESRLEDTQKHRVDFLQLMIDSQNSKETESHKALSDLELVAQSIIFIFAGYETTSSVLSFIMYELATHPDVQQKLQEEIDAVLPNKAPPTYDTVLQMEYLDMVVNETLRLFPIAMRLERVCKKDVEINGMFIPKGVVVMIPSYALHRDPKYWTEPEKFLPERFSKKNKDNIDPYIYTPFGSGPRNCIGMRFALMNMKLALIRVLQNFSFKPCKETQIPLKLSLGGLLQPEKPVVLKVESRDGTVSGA
Chain of CYP2D6 (P10635 whole entry, canonical isoform): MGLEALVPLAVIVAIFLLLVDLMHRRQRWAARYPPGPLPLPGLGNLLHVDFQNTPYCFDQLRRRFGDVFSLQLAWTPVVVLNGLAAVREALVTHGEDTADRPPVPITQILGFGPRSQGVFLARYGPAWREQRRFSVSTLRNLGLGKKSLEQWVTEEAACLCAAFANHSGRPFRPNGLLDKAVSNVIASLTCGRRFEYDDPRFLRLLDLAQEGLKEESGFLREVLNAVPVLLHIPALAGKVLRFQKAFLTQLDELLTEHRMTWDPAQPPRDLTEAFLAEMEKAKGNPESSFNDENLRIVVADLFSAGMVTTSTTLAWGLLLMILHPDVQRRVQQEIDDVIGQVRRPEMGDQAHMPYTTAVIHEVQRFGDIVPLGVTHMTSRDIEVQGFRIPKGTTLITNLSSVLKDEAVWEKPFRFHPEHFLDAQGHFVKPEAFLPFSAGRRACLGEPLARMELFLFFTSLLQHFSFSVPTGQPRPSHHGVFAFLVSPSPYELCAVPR

On to `CO/N=C1\C[C@@H](CO)N(C(=O)c2ccc(-c3ccccc3C)cc2)C1` [(3E) isomer, (3E,5S)-5-(hydroxymethyl)-1-[(2′-methyl-1,1′-biphenyl-4-yl)carbonyl]pyrrolidin-3-one O-methyloxime, reference compound], for which the microsomal CLint at 3 μM in series [1] (read-out: CLint, Metabolic Stability - CYP) stood at 6.4 µL/min/mg; in series [2] (read-out: CLint, Metabolic Stability - CYP/UGT), 5.38 µL/min/mg. The half-life at 3 μM in series [1] (read-out: t1/2, Metabolic Stability - CYP) was 3.6 h; in series [2] (read-out: t1/2, Metabolic Stability - CYP/UGT), 4.3 h. The “Compound Remaining (% of compound present at t = 0 min)” value in series [3] (0 min) was 100%; in series [3] (5 min) it was 107%; in series [3] (15 min), 88.8%; in series [3] (30 min) it was 92.5%; in series [3] (45 min), 92.2%; in series [4] (0 min), 100%. Moreover, the “Compound Remaining (% of compound present at t = 0 min)” value was found to be 49.3% in series [4] (5 min); 14.1% in series [4] (15 min); 2.43% in series [4] (30 min); 0.845% in series [4] (45 min); 100% in series [5] (0 min); 87.6% in series [5] (5 min). Moreover, the figures for the “Compound Remaining (% of compound present at t = 0 min)” value in series [5] (15 min), in series [5] (30 min) and in series [5] (45 min) were 82.7%, 57.1% and 47.4%, respectively. Also, the values for the half-life at 5 μM in series [3] (human), in series [4] (human) and in series [5] (human) were 4.68 h, 5.62 min and 0.69 h, respectively.
